In patent US12377100B2 (GILEAD SCIENCES, INC., priority 2015, dated 2025):

Tests used:
Assay type in all cases: cell-based
Conditions in all cases: human PBMCs, 24 hours incubation
IL12p40 = experiment: PBMC cytokine profiling assay, IL12-p40 induction
Description: (§1) Certain compounds disclosed herein we tested according to the procedure described below. Additionally, certain reference compounds were prepared and tested along with the compounds of the present disclosure.
(§2) Compounds were dissolved and stored in DMSO (Sigma-Aldrich, St. Louis, MO) at 10 mM concentration.
(§3) Cryopreserved human PBMCs isolated from healthy donors were purchased from StemCell Technologies (Vancouver, Canada). Cell culture medium used was RPMI with L-Glutamine (Mediatech, Manassas, VA) supplemented with 10% fetal bovine serum (Hyclone, GE Healthcare, Logan, UT) and Penicillin-Streptomycin (Mediatech). Human TNFα, IL12p40, and IFNα2a 384-well Assay capture plates, standards, buffers and processing reagents were obtained from MesoScale Discovery Technologies (MSD; Rockville, MD).
(§4) Cryopreserved human PBMCs (1×10e8 cells/ml) were thawed at 37° C. and resuspended in 25 mL warm cell culture medium. The cells were pelleted at 200×g (Beckman Avanti J-E) for 5 min and resuspended in 20 mL of fresh culture media. Cells were counted using a Cellometer (Nexcelcom Bioscience), adjusted to 2×10e6 cells, and incubated for 2 hours in an incubator set at 37° C., 5% CO2 to recover from cryopreservation. Compounds were serially diluted in DMSO at half-log steps to generate a 10-point dose range. Using a Bravo pipette equipped with a 384 well head (Agilent), 0.4 μL of compound was transferred to each well of a 384 well black, clear bottom plate (Greiner Bio-One, Germany) containing 30 μL of cell culture medium. Recovered PBMCs were then dispensed into the assay plate at 50 μL per well (100k cells/well) using the MicroFlow multichannel dispenser (Biotek). Final DMSO concentration was 0.5%. DMSO was used as the negative control. The plates were incubated for 24 hours at 37° C. PBMCs in the assay plate were pelleted by centrifugation (Beckman Avanti J-E) at 200×g for 5 min.
(§5) Using a Biomek FX 384 well pipetting station (Beckman), conditioned culture medium (CCM) from the assay plate was transferred to MSD capture plates customized for each cytokine. For IFNα and IL12-p40 detection, 25 μL and 20 μL of CCM were added directly to each capture plate, respectively. For TNFα detection, CCM was diluted 1:9 in fresh culture medium, and 20 μL of diluted CCM was used. Serially diluted calibration standards for each cytokine were used to generate standard curves and establish assay linearity. The plates were sealed and incubated overnight at 4° C. in a plate shaker (Titer Plate) set at 200 rpm. On the following day, antibodies specific for each cytokine were diluted 1:50 in MSD Diluent 100 antibody dilution buffer. Diluted antibodies were added to corresponding capture plates at 10 μL/well, and incubated at RT for 1-2 hrs in the shaker. The plates were washed with PBST buffer (3×, 60 μl/well) using a Biotek Multiflow plate washer. MSD Read Buffer diluted to 2× in deionized water and 35 μL/well was added via Biomek FX instrument. The plates were read immediately in a MSD6000 reader. Data were normalized to positive and negative controls in each assay plate. AC50 values represent compound concentrations at half-maximal effect based on normalized percent activation and calculated by non-linear regression using Pipeline Pilot software (Accelrys, San Diego, CA).

IFNα = experiment: PBMC cytokine profiling assay, IFNα induction
Description: as §1, §2, §3, §4, §5

TNFα = experiment: PBMC cytokine profiling assay, TNFα induction
Description: as §1, §2, §3, §4, §5

| Compound | AC50 (IL12p40; Homo sapiens, PBMC, 24 h) [µM] | AC50 (IFNα; Homo sapiens, PBMC, 24 h) [µM] | AC50 (TNFα; Homo sapiens, PBMC, 24 h) [µM] | AC50 (IL12p40) [µM] | AC50 (IFNα) [µM] | AC50 (TNFα) [µM] |
| --- | --- | --- | --- | --- | --- | --- |
| CCC[C@](C)(CO)Nc1nc(N)nc2cccnc12 [Example 80, (R)-2-((2-aminopyrido[3,2-d]pyrimidin-4-yl)amino)-2-methylpentan-1-ol] | 2.4 | > 50 | 2.7 | – | – | – |
| Nc1nc(NC(CO)CO)c2ncccc2n1 [Example 17, 2-((2-aminopyrido[3,2-d]pyrimidin-4-yl)amino)propane-1,3-diol] | > 50 | > 50 | > 50 | – | – | – |
| CCCC[C@H](CO)Nc1nc(N)nc2c(C)ccnc12 [Example 57, (R)-2-((2-amino-8-methylpyrido[3,2-d]pyrimidin-4-yl)amino)hexan-1-ol] | 9.7 | > 50 | 11 | – | – | – |
| CCCC[C@H](CO)Nc1nc(N)nc2cc(OC)cnc12 [Example 105, (R)-2-((2-amino-7-methoxypyrido[3,2-d]pyrimidin-4-yl)amino)hexan-1-ol] | 3.4 | > 50 | 3.5 | – | – | – |
| CCCC[C@@](C)(Nc1nc(N)nc2cc(F)cnc12)C(C)O (single isomer, unassigned) [Example 94] | – | – | – | 0.7 | 2.2 | 1 |
| Nc1nc(N[C@@H](CO)CCCC(F)(F)F)c2ncccc2n1 [Example 99, (R)-2-((2-aminopyrido[3,2-d]pyrimidin-4-yl)amino)-6,6,6-trifluorohexan-1-ol] | 3.6 | > 50 | 3.4 | – | – | – |
| CCCC[C@H](CO)Nc1nc(N)nc2cc(OCC)cnc12 [Example 106, (R)-2-((2-amino-7-ethoxypyrido[3,2-d]pyrimidin-4-yl)amino)hexan-1-ol] | 10.2 | > 50 | 13.8 | – | – | – |
| CC(F)(F)CC[C@H](CO)Nc1nc(N)nc2cccnc12 [Example 78, (R)-2-((2-aminopyrido[3,2-d]pyrimidin-4-yl)amino)-5,5-difluorohexan-1-ol] | 14.2 | > 50 | 16 | – | – | – |
| C=C(C)CC[C@H](CO)Nc1nc(N)nc2cccnc12 [Example 77, (R)-2-((2-aminopyrido[3,2-d]pyrimidin-4-yl)amino)-5-methylhex-5-en-1-ol] | 43.6 | 43.6 | 43.6 | – | – | – |
| Nc1nc(NCC2CCCO2)c2ncccc2n1 (stereo not drawn) [Example 16, N^4-((tetrahydrofuran-2-yl)methyl)pyrido[3,2-d]pyrimidine-2,4-diamine] | > 50 | > 50 | > 50 | – | – | – |
| CCC[C@H](Nc1nc(N)nc2cccnc12)C(N)=O [Example 30B, (S)-2-((2-aminopyrido[3,2-d]pyrimidin-4-yl)amino)pentanamide] | 8.6 | > 50 | 10.6 | – | – | – |
| CCC[C@@H](CO)Nc1nc(N)nc2ccc(C)nc12 [Example 33, (S)-2-((2-amino-6-methylpyrido[3,2-d]pyrimidin-4-yl)amino)pentan-1-ol] | 0.85 | 5.9 | 0.92 | – | – | – |
| CCCCC(Nc1nc(N)nc2cccnc12)C(C)O (stereo not drawn) [Example 104, 3-((2-aminopyrido[3,2-d]pyrimidin-4-yl)amino)heptan-2-ol] | – | – | – | 1.9 | 4.2 | 2.1 |
| CCCC[C@H](CO)Nc1nc(N)nc2cc(Cl)cnc12 [Example 23C, (R)-2-((2-amino-7-chloropyrido[3,2-d]pyrimidin-4-yl)amino)hexan-1-ol] | 25.7 | > 50 | 24.7 | – | – | – |
| CCCCC[C@](C)(CO)Nc1nc(N)nc2cc(F)cnc12 [Example 111, (R)-2-((2-amino-7-fluoropyrido[3,2-d]pyrimidin-4-yl)amino)-2-methylheptan-1-ol] | 0.47 | – | 0.61 | – | 19.8 | – |
| CCCC[C@@](C)(CO)Nc1nc(N)nc2cccnc12 [Example 60, (S)-2-((2-aminopyrido[3,2-d]pyrimidin-4-yl)amino)-2-methylhexan-1-ol] | 2.3 | 7.9 | 2.6 | – | – | – |
